Melting point data for 86 compounds are collected here from a melting point compilation (Tetko et al.; mined from patent text by program, amines drawn as free bases though some values may be those of a salt).

SMILES strings stand for the structures.

Usually melting point stands for the temperature of the solid-liquid transition. On to `CC(C)(C)OC(=O)NCC(=O)c1ccc(OCc2ccccc2)cc1`, for which the melting point is 75 to 76 °C.
Compound `CCOC(=O)C=Cc1c(OC)cncc1OC` showed a melting point of 100 to 101 °C.
Take `C#CCOc1cc(-c2ncc(C(F)(F)F)cc2Cl)c(F)cc1Cl`: the melting point lay in the range of 97 to 98 °C.
For the compound `CN(C)CCCNc1ncc2c(n1)-c1ccccc1C(c1cccc(Br)c1)C2` (stereo unspecified), the melting point was in the range of 120 to 122 °C.
Turning to `Cn1cc(C2=C(c3ccc4ccccc4c3)C(=O)NC2=O)c2ccccc21`, the melting point lay in the range of 180 to 184 °C.
On to `Nc1c2c(nc3ccccc13)CCCC2N1CCCC1` (stereo unspecified), for which the melting point fell in the range of 201 to 203 °C.
The compound `Cc1ccnc(N2CCN(CCCCC3Sc4ccccc4NC3=S)CC2)c1` (stereo unspecified) came in with a melting point of 119 °C.
Take `Nc1ncc(-c2ccccc2)nc1Sc1ccc(F)cc1`: the melting point lay in the range of 161 to 164 °C.
In the case of `CCCCc1cc2ccccc2c(Oc2ccc(/C=C/C(=O)O)cc2)c1-c1ccc(O)cc1` it was 107 to 109 °C; in that of `C[C@H](NC(=O)c1c[nH]c2ncc(-c3nn(C)c4cc(Cl)ccc34)nc12)C(C)(C)C#N`, 322 to 328 °C; in that of `Clc1nc(Cl)c2[nH]nnc2n1`, > 260 °C.
The same measure for `O=C(Oc1ccc(OC(=O)c2ccc(O)c(O)c2)c2ccccc12)c1ccc(O)c(O)c1`: 261 °C.
For the compound `CNC(=N)NC(=O)c1nc(Cl)c(NC2CCCC2)nc1N`, the melting point is 184 to 187 °C.
In the case of `C=C1C(=C)C2OC1C1=C2Cc2c(cccc2OC)C1` (stereo unspecified) it was 145 to 147 °C; in that of `COCc1cnc2c(NC(=O)c3ccccc3[N+](=O)[O-])cccc2c1N1CCN(C)C1=O`, 156 to 159 °C.
In the case of `O=C1N(CC2OC(O)C(O)C(O)C2O)c2ccccc2C12COc1cc3c(cc12)OCCO3` (stereo unspecified) it was 122 to 126 °C.
As for `O=C(O)C1=Cc2cc(F)cc(F)c2OC1C(F)(F)F` (stereo unspecified), the melting point lay in the range of 207 to 211 °C.
Consider `O=C1NS(=O)(=O)CCC1c1ccc([N+](=O)[O-])cc1F` (stereo unspecified), for which the melting point was 218 to 219 °C.
As to `COc1cccc([C@H]2O[C@H](CC(=O)NCc3cccc(CCC(=O)O)c3)C(=O)N(CC(C)(C)CO)c3ccc(Cl)cc32)c1OC`, the melting point was 177 to 178 °C.
On to `COc1ccc(/C=C/c2ccc3nc(C(=O)N[C@@H](Cc4ccc(OCc5ccccc5)cc4)C(=O)O)cn3c2)cc1`, for which the melting point fell in the range of 262 to 263 °C.
In turn, `C=C(C)COc1ccc(C(=O)C=Cc2ccc(F)cc2)c2oc3ccccc3c(=O)c12` had a melting point of 135 to 137 °C.
`COCCOC(=O)Nc1cc(N2CC=CCC2)nc2nc(=O)on12` had a melting point of 195 to 196 °C.
In turn, `O=C1CCc2cccc3c2N1C(=O)C3` displayed a melting point of 194 to 197 °C.
In the case of `COc1cc(OC)nc(NCC2COC3(CCC(C(C)(C)C)CC3)O2)n1` (stereo unspecified) it was 76 to 106 °C; in that of `COC(=O)c1c(O)cc(OCC(O)c2ccc3c(c2)C(C)(C)CCC3(C)C)cc1O` (stereo unspecified), 127 to 128 °C; in that of `CCCCCCCCCCCCC#CCC(COC(C)=O)(COC(C)=O)NC(C)=O`, 95.5 to 96.5 °C.
As for `CC(C)Oc1cccc(C(CC(=O)O)NS(=O)(=O)c2ccc3ccccc3c2)c1` (stereo unspecified), the melting point came to 126 °C.
Compound `CCCCCCOc1cccc(N2CC(=O)NC(=O)N2)c1` displayed a melting point of 161 to 163 °C.
`O=C1N(C(c2ccccc2)c2ccccc2)c2c(F)cccc2C12COc1cc3c(cc12)CCO3` (stereo unspecified) displayed a melting point of 183 to 184 °C.
Consider `CC1(C)CN(CCO)C(=O)C(C)(C)N1`, for which the melting point was in the range of 91 to 93 °C.
In the case of `COC=C(C(=O)OC)c1ccccc1CSc1ccccc1`, the melting point turned out to be 71 °C.
With `O=C(O)C(O)(c1ccc(F)cc1)c1ccc(F)cc1`, the melting point lay within 133 to 136 °C.
Take `Oc1ccc(CCN(Cc2ccccc2)CC(O)COc2ccccc2)cc1` (stereo unspecified): the melting point was 103 to 105 °C.
For the compound `Cc1ccc(F)cc1C(=O)Nc1ccc(C(=O)O)cc1`, the melting point was 272 to 275 °C.
`CC(C)(C)OC(=O)NCCCCn1c(-c2ccccc2)nc2c(N)nc3ccccc3c21` returned a melting point of 182 to 183 °C.
Compound `O=C(O)c1ccc2c(c1)N(C1CC1)CNS2(=O)=O` registered a melting point of 243 to 245 °C.
In the case of `CCOC(=O)c1ccc2c(c1)CC(Cc1cncs1)C2` (stereo unspecified) it was 47 to 49 °C; in that of `CCCc1nc2c(N)nc3cccnc3c2n1CCCC(C)N(OC)C(C)=O` (stereo unspecified), 158 to 159 °C.
The compound `CC(C)(C)c1cc(CCC(=O)OC2CCCCCCCCCCC2OC(=O)CCc2cc(C(C)(C)C)c(O)c(C(C)(C)C)c2)cc(C(C)(C)C)c1O` (stereo unspecified) came in with a melting point of 61 to 74 °C.
As for `CC(C)(C)OC(=O)NCCCc1ccccc1C=CC(=O)O`, the melting point lay in the range of 122 to 126 °C.
For the compound `Cn1c2ccccc2c2nc3cccc(C=O)c3nc21`, the melting point lay within 219 to 221 °C.
In the case of `Cc1cc2c(cc1C)C(=O)C(Nc1ccccc1)=CC2=O` it was 208 to 210 °C; in that of `COc1ccc(CN(C)CCCc2ccc(NC(=O)c3cccc4c(=O)c5cccc([N+](=O)[O-])c5[nH]c34)cc2)cc1OC`, 192 °C.
As for `N#Cc1ccc(OCCCCCOc2ccc(-c3cc4ccc(C#N)cc4o3)cc2)cc1`, the melting point was 165 to 167 °C.
On to `Cc1ccccc1C=C1CSCC(=Cc2ccccc2C)C1=O`, for which the melting point lay in the range of 123 to 125 °C.
`COc1ccc([C@@H]2CC=CC[C@H]2[N+](=O)[O-])cc1OC` (racemic) yielded a melting point of 114 to 116 °C.
Take `CON=C(C)c1ccc(-c2ccc(C(=O)n3ccc4cc(OC)c(OCCN(C)C)cc43)cc2)c(C)c1`: the melting point lay within 120 to 121 °C.
`CC(S)C(=O)NCc1noc(C(C)c2ccc(-c3ccccc3)c(F)c2)n1` (stereo unspecified): the melting point fell in the range of 94 to 95 °C.
The same measure for `O=C(O)c1c(Br)nc(-c2ccccc2)n1Cc1cc2c(cc1Cl)OCO2`: 215 °C; for `C=CCNC(=O)N1CC(OCc2ccc(Cl)c(Cl)c2)C1`: 88 to 89 °C.
On to `COc1ccc(NS(=O)(=O)c2ccc([N+](=O)[O-])cc2[N+](=O)[O-])cc1`, for which the melting point was in the range of 115 to 116 °C.
For the compound `c1ccc(CN2CCCC(c3ncc(-c4cnc(-c5ccccc5)nc4)[nH]3)C2)cc1` (stereo unspecified), the melting point came to 179 °C.
`CCCCCCCCCCN(C[C@H]1CCC[C@H](CN(CCCCCCCCCC)C(=O)Nc2ccc(N(C)C)cc2)C1)C(=O)Nc1ccc(N(C)C)cc1` (relative stereo) came in with a melting point of 115 to 117 °C.
As for `Cc1ccn2c(=O)c(CCN3CCC(c4c[nH]c5ccccc45)CC3)c(C)nc2c1`, the melting point was 236 °C.
On to `CCC(=O)c1cc(Cl)c(C)cc1OC`, for which the melting point was found to be 79 °C.
`CC1(C)C(=O)Nc2cc3[nH]c(-c4ccccc4)nc3cc21` gave a melting point of 195 to 220 °C.
In the case of `Cc1c(C(=O)Nc2ccc(N3CCC(N4CCOCC4)CC3)c(Cl)c2)cnn1-c1ccc(Cl)cc1` it was 238 to 240 °C.
In the case of `O=C(O)COn1cccn1`, the melting point turned out to be 99 °C.
Take `COc1cc(NC(=O)c2cccc(CCc3cc(Nc4ccccc4)n[nH]3)c2)cc(OC)c1OC`: the melting point was in the range of 67 to 69 °C.
On to `CCN(CC)C(=O)c1c(OC)ccc2cc(-c3ccc(OC)cc3)ccc12`, for which the melting point was 118 to 120 °C.
In the case of `OC(CCCn1ccnc1)c1ccc(Cl)cc1Cl` (stereo unspecified) it was 91.5 to 94 °C; in that of `Clc1cc2c(cc1CN1CCN(CCOc3ccccc3)CC1)OCO2`, 72 to 76 °C.
The compound `CCCCCCCNC(=O)N(C)c1cccc(-c2ccc(CCC(=O)O)cc2OC)c1` displayed a melting point of 100 to 101 °C.
As for `CN1CCC23CC(=O)CCC2(O)C1Cc1cccc(O)c13` (stereo unspecified), the melting point fell in the range of 233 to 236 °C.
In turn, `CCCCCCCCCCNC(=O)c1ccc(C(=O)NCCCCCCCCCC)c(N(CC(=O)OC)CC(=O)OC)c1` registered a melting point of 76 to 78 °C.
In the case of `O=C(O)C1CC(O)CN1C(=O)c1ccc2c(c1)OCCO2` (stereo unspecified) it was 142 °C; in that of `CC1(C)CCCN(C(=O)CN(C(=O)CNC(=O)Nc2cccc(CCO)c2)c2ccccc2)C1`, 175 °C.
Turning to `COc1ccc(C)cc1NC(=O)Nc1ccc(C2=CCN(C(=O)Nc3ncccc3CO)CC2)cc1`, the melting point lay in the range of 103 to 108 °C.
`Cc1cc(N(C)N)nnc1-c1ccc(C#N)cc1`: the melting point lay in the range of 149 to 152 °C.
The same measure for `COC(=O)C(Cc1ccc(OCc2nc3ccc(Oc4ccc(C56CC7CC(CC(C7)C5)C6)cc4)cc3n2C)cc1)OCc1ccc(F)cc1` (stereo unspecified): 118 to 120 °C.
In the case of `CCCCN1CCn2c1nc(C(=O)NCc1ccc(F)cc1-n1cnc(C)n1)c(OCc1ccccc1)c2=O` it was 172 to 173 °C; in that of `O=[N+]([O-])c1oc2ccc(CBr)cc2c1-c1ccccc1`, 171 to 180 °C.
Regarding `CC(C)(C)c1ccc(-c2cc3ccc(C(=O)O)cc3s2)cc1`, the melting point worked out at 318 °C.
On to `COc1ccc(S(=O)(=O)Nc2cccc3cn[nH]c23)cc1`, for which the melting point was 155 to 156 °C.
For `O=C(N[C@H]1CCCNC1=O)c1ccccc1C(F)(F)F`, the melting point lay within 155 to 156 °C.
In the case of `COC(=O)CCCCNC(=O)C(COS(C)(=O)=O)NS(=O)(=O)c1ccc(Cl)cc1` (racemic) it was 95 to 97 °C; in that of `CCOC(=O)C(=O)c1oc(-n2ccnc2C)nc1-c1ccc(Cl)cc1`, 126 to 127 °C.
In the case of `CCCCc1nc2c(N)nc3ccccc3c2n1CCCNC(=O)N1CCOCC1` it was 193 to 195 °C; in that of `Cc1ccc(C(=O)c2ccc(CC#N)n2C)s1`, 118 to 121 °C.
Regarding `O=C(NC(=O)c1ccccc1Cl)Nc1cc(Cl)c(OC(F)(F)C(F)Cl)cc1Cl` (stereo unspecified), the melting point is 158 to 160 °C.
Regarding `O=C(Nc1ccccc1)ONC1=Nc2ccc([N+](=O)[O-])cc2C(c2ccccc2Cl)=NC1`, the melting point was 201 to 203 °C.
On to `C=CC1CC2=CC(=O)CCC2(C)C2CCC3(C)C(CCC3(C)O)C12` (stereo unspecified), for which the melting point fell in the range of 116 to 117 °C.
The same measure for `O=C(O)C=CC=CCS(=O)(=O)c1ccccc1`: 148 to 150 °C; for `Cc1cccc(-c2nc(N)sc2-c2cccc(-c3ccc(S(C)(=O)=O)cc3)c2)n1`: 107 to 109 °C; for `NS(=O)(=O)c1cnc(C2CC2=O)s1` (stereo unspecified): 148 to 149 °C.
The compound `Nc1ncc(Cc2cccc(-c3ccccc3)c2)c(N)n1` returned a melting point of 108 to 115 °C.
